Measured values from patent US8765420B2, “Method for preparing pterocarpan” (priority 2010, dated 2014).

Target: T1, biphenyl dioxygenase of P. pseudoalcaligenes KF707 (SEQ ID NO:3) (Metapseudomonas furukawaii, UniProt Q52028)
T1 construct: expressed in transfected cells; host or cells: Escherichia coli JM109 (pJHF108)
Test: Biotransformation kinetics by whole cells of E. coli expressing biphenyl dioxygenase
Assay type: biochemical, Pseudomonas pseudoalcaligenes strain KF707
Conditions: for Corresponding epoxides produced after 5 h reaction: initial concentration of substrate 250 μM, whole cells of E. coli expressing BDO, 37° C., means of triplicate ± standard errors
Method: E. coli JM109 (pJHF108) was seed cultivated in 50 mL of LB medium containing ampicillin […] at 37° C. for 12 hours. The cultivated seed was inoculated to a 5-L fermentor (BioFlo 3000, Korea fermentor Co., Korea) containing 4.5 L of LB medium and […] of ampicillin, and mixed at 37° C. at 200 rpm for 8 hours. The culture broth was centrifuged at 8,000 g for 10 minutes using VS-21SMT centrifuge (Vision Scientific Co., Bucheon, Korea). Cells were washed three times with 100 mM minimal salt buffer and resuspended in the same buffer, adjusting to the optical density at 600 nm using a UV/visible spectrophotometer (Shimadzu, UV-1601PC, Kyoto, Japan).
Analytical HPLC was carried out using a Varian Prostar HPLC apparatus (Walnut Creek, Calif.) equipped with a photodiode array […] detector. For the analysis of isoflavan-4-ol stereoisomers and their metabolites, a Waters Spherisorb ODS-2 column ([…], 4.6 mm×25 cm, Milford, Mass.) was used. The mobile phase was operated as a linear gradient that made up of water-acetonitrile containing 0.1% formic acid (10% acetonitrile at 0 min, 40% acetonitrile at 15 min, 90% acetonitrile at 25 min, and 90% acetonitrile at 40 min). The flow rate was 1 mL/min and UV detection was performed at 270 nm. For the analysis of enantiomers of cis- and trans-isoflavan-4-ol, a Sumi Chiral OA-7000 column (5 mm, 4.6 mm×25 cm, Sumika Chemical Analysis Service, Ltd., Osaka, Japan) and mobile phase composed of 60:40 (v/v) of 20 mM phosphate buffer (pH 3.0) and acetonitrile were used. The flow rate was 1 mL/min and UV detection was performed at 270 nm.
Biotransformation kinetics by whole cells of E. coli expressing biphenyl dioxygenase was performed as follows. The bacterial culture was prepared as described above, resuspended in 50 mL of phosphate buffer containing 1 mM glucose in a 250 mL flask, and adjusted to a final culture concentration of OD 600 nm=0.6. Then, the bacterial culture was incubated with 250 μM each of four purified isoflavan-4-ol stereoisomers ((3S,4S)- and (3R,4R)-cis-isoflavan-4-ols and (3S,4R)- and (3R,4S)-trans-isoflavan-4-ols) on a rotary shaker (200 rpm) at 37° C. The bacterial cultures (2 mL) were extracted with ethyl acetate, and the solvent was evaporated to dryness as described above. Quantification of metabolites and parent compound by using HPLC with time was monitored in triplicate experiments. Due to the instability of metabolites which were produced from parent compound, the quantity was calculated from the peak area as compared to the standard curve of the parent compound.

T1 sequence (Q52028 whole entry M237T/S238T/M247I/H255Q/V258I/G268A/F277Y/M283S/M285L/D303E/T340I): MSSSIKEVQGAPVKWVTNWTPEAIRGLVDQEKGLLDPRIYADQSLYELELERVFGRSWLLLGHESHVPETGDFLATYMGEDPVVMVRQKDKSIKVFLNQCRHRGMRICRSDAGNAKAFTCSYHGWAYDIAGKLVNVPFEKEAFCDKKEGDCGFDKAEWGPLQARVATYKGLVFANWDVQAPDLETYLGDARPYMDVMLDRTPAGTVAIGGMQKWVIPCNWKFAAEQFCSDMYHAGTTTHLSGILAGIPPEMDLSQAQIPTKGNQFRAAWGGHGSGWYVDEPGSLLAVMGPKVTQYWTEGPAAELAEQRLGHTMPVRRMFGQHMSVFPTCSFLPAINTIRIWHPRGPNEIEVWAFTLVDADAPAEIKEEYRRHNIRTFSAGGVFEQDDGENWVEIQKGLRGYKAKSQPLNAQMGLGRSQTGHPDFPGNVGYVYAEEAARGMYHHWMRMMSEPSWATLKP

Structure (SMILES): O[C@@H]1c2ccccc2OC[C@@H]1c1ccccc1 (stereo in doubt) [(3S,4S)-cis-isoflavan-4-ol]
- epoxide production relative to that from (3R,4R)-cis-isoflavan-4-ol (after 5 h of reaction): about 4.8 fold
- Corresponding epoxides produced after 5 h reaction: 194.8 ± 5.5 µM

Structure (SMILES): O[C@@H]1c2ccccc2OC[C@H]1c1ccccc1 (stereo in doubt) [(3R,4S)-trans-isoflavan-4-ol]
- Corresponding epoxides produced after 5 h reaction: 163.3 µM
- Corresponding epoxides produced after 5 h reaction (listed as Trans-isoflavan-4-ol (3R,4S)): 163.3 ± 6.8 µM

Structure (SMILES): O[C@H]1c2ccccc2OC[C@H]1c1ccccc1 (stereo in doubt) [(3R,4R)-cis-isoflavan-4-ol]
- Corresponding epoxides produced after 5 h reaction: 40 ± 4.0 µM

Structure (SMILES): O[C@H]1c2ccccc2OC[C@@H]1c1ccccc1 (stereo in doubt) [(3S,4R)-trans-isoflavan-4-ol]
- Corresponding epoxides produced after 5 h reaction: 141.1 µM
- Corresponding epoxides produced after 5 h reaction (listed as Trans-isoflavan-4-ol (3S,4R)): 141.1 ± 6.2 µM
